We go through 6 compounds from patent US6869913B1, “Pyridazin-3-one derivatives, their use and intermediates for their production” (Sumitomo Chemical Company, Limited, priority 1995, dated 2005).

Each structure is given as a SMILES string.

Common to all, as to assay type: in vivo
For experiment [1], the system named is barnyardgrass (Echinochloa oryzicola). The experiment in a line: Test Example 4: flooding treatment on paddy fields. The note with it: application amount of active ingredient 250 g/ha, examined 19 days after application, index 0 to 5. As to the method:
Cylindrical plastic pots of 9 cm in diameter and 11 cm in depth were filled with soil, in which the seeds of barnyardgrass (Echinochloa oryzicola) were sowed. These pots were flooded to form a paddy field, and the test plants were grown in a greenhouse for 7 days. Each of the test compounds listed below was formulated into an emulsifiable concentrate according to Formulation Example 2, which was diluted with water to a prescribed concentration. The dilution was applied to the water surface in the pots at a volume of 50 liters per hectare. After the application, the test plants were grown in the greenhouse for 19 days, and the herbicidal activity was examined.

Experiment [2] relates to velvetleaf (Abutilon theophrash). Description: Test Example 2: foliar treatment on upland fields. Particulars: 32 g/ha active ingredient; foliar spray; examined 19 days after application. On the set-up: key: rating; 4–5 = excellent activity, 3 or lower = insufficient. From the text:
(§1) The herbicidal activity is excellent when rated at “4” or “5” but insufficient when rated at “3” or lower. The phytotoxicity is no problematic on practical use when rated at “0” or “1” but not allowed when rated at “2” or higher.
(§2) Cylindrical plastic pots of 10 cm in diameter and 10 cm in depth were filled with soil, in which the seeds of barnyardgrass (Echinochloa crus-galli), entireleaf morningglory (Ipomoea hederacea var. integriuscula) and velvetleaf (Abutilon theophrash) were sowed, and the test plants were grown in a greenhouse for 19 days. Each of the test compounds listed below was formulated into an emulsifiable concentrate according to Formulation Example 2, which was diluted with water containing a spreading agent to a prescribed concentration. The dilution was uniformly sprayed over the foliage of the test plants with a sprayer at a volume of 1000 liters per hectare. After the application, the test plants were grown in the greenhouse for 19 days, and the herbicidal activity was examined.

For experiment [3], the system named is barnyardgrass (Echinochloa crus-galli). The experiment in a line: Test Example 2: foliar treatment on upland fields. On the set-up: key: rating; 4–5 = excellent activity, 3 or lower = insufficient. Particulars: 32 g/ha active ingredient; foliar spray; examined 19 days after application.
Source text: as §1, §2

Experiment [4] concerns entireleaf morningglory (Ipomoea hederacea var. integriuscula). Description: Test Example 2: foliar treatment on upland fields. Further details: key: rating; 4–5 = excellent activity, 3 or lower = insufficient. The note with it: 32 g/ha active ingredient; foliar spray; examined 19 days after application.
Source text: as §1, §2

In experiment [5] the test system is slender amaranth (Amaranthus gracilis). Description: Test Example 7: soil surface treatment on upland fields. Particulars: 63 g/ha active ingredient; soil surface spray; examined after 19 days.
Source text: as §1
(§3) Plastic pots of 25×18 cm^2 in area and 7 cm in depth were filled with soil, in which the seeds of soybean (Glycine max), corn (Zea mays), common lambsquarters (Chenopodium album), slender amaranth (Amaranthus gracilis), and pale smartweed (Polygonum lapathifolium) were sowed. Each of the test compounds listed below was formulated into an emulsifiable concentrate according to Formulation Example 2, which was diluted with water to a prescribed concentration. The dilution was uniformly sprayed over the soil surface in the pots with a sprayer at a volume of 1000 liters per hectare. After the application, the test plants were grown in a greenhouse for 19 days, and the herbicidal activity and phytotoxicity were examined.

Experiment [6] has as its system pale smartweed (Polygonum lapathifolium). The description is as above. Particulars: 63 g/ha active ingredient; soil surface spray; examined after 19 days.
Source text: as §1, §3

Experiment [7] deals with common lambsquarters (Chenopodium album). The experiment is described as above. Particulars: 63 g/ha active ingredient; soil surface spray; examined after 19 days.
Source text: as §1, §3

Experiment [8] has as its system velvetleaf (Abutilon theophrash). Description: Test Example 1: foliar treatment on upland fields. Particulars: 500 g/ha active ingredient; foliar spray; examined 19 days after application. As to the method: as §2, with “barnyardgrass (Echinochloa crus-galli), entireleaf morningglory” left out
Experiment [9] has as its system entireleaf morningglory (Ipomoea hederacea var. integriuscula). Description: Test Example 1: foliar treatment on upland fields. Particulars: 500 g/ha active ingredient; foliar spray; examined 19 days after application. As to the method:
as §2, with “barnyardgrass (Echinochloa crus-galli), entireleaf morningglory” left out

For experiment [10], the system named is velvetleaf (Abutilon theophrash). The experiment in a line: Test Example 3: soil surface treatment on upland fields. Particulars: 500 g/ha active ingredient; soil surface spray; examined after 19 days. As to the method: (§4) Cylindrical plastic pots of 10 cm in diameter and […] in depth were filled with soil, in which the seeds of […] (Ipomoea hederacea var. integriuscula) and velvetleaf (Abutilon theophrash) were sowed. Each of the test compounds listed below was formulated into an emulsifiable concentrate according to Formulation Example 2, which was diluted with water to a prescribed concentration. The dilution was uniformly sprayed over the soil surface in the pots with a sprayer at a volume of 1000 liters per hectare. After the application, the test plants were grown in a greenhouse for 19 days, and the herbicidal activity was examined.

Experiment [11] relates to entireleaf morningglory (Ipomoea hederacea var. integriuscula). The description is as above. The note with it: 500 g/ha active ingredient; soil surface spray; examined after 19 days. As to the method: as §4
For experiment [12], the system named is catchweed bedstraw (Galium aparine). The experiment in a line: Test Example 6: foliar treatment on upland fields. Particulars: 63 g/ha active ingredient; foliar spray; 25 days after application.
Source text: as §1
(§5) Plastic pots of 16×11 cm^2 in are and 7 cm in depth were filled with soil, in which the seeds of wheat (Triticum aestivum), pale smartweed (Polygonum lapathifolium), catchweed bedstraw (Galium aparine), and common chickweed (Stellaria media) were sowed, and the test plants were grown for 29 days. Each of the test compounds listed below was formulated into an emulsifiable concentrate according to Formulation Example 2, which was diluted with water to a prescribed concentration. The dilution was uniformly sprayed over the foliage of the test plants with a sprayer at a volume of 1000 liters per hectare. At this time, the unfavorable weeds and crop plants, although their growth state was different depending upon the weed species, were at the 1- to 4-leaf stage, and the plant height was 5 to 15 cm. After 25 days from the application, the herbicidal activity and phytotoxicity were examined. This test was made in a greenhouse over the entire period.

For experiment [13], the system named is common chickweed (Stellaria media). Description: Test Example 6: foliar treatment on upland fields. The note with it: 63 g/ha active ingredient; foliar spray; 25 days after application.
Source text: as §1, §5

Experiment [14] concerns pale smartweed (Polygonum lapathifolium). Description: Test Example 6: foliar treatment on upland fields. Particulars: 63 g/ha active ingredient; foliar spray; 25 days after application.
Source text: as §1, §5

The subject of experiment [15] is common cocklebur (Xanthium pensylvanicum). Description: Test Example 5: foliar treatment on upland fields. Particulars: 63 g/ha active ingredient; foliar spray; 18 days after application.
Source text: as §1
(§6) Plastic pots of 25×18 cm^2 in area and 7 cm in depth were filled with soil, in which the seeds of soybean (Glycine max), corn (Zea mays), entireleaf morningglory (Ipomoea hederacea var. integriuscula), common cocklebur (Xanthium pensylvanicum), common ragweed (Ambrosia artemisiifolia), and common lambsquarters (Chenopodium album) were sowed, and the test plants were grown for 16 days. Each of the test compounds listed below was formulated into an emulsifiable concentrate according to Formulation Example 2, which was diluted with water to a prescribed concentration. The dilution was uniformly sprayed over the foliage of the test plants with a sprayer at a volume of 1000 liters per hectare. At this time, the unfavorable weeds and crop plants, although their growth state was different depending upon the weed species, were at the 1- to 4-leaf stage, and the plant height was 5 to 20 cm. After 18 days from the application, the herbicidal activity and phytotoxicity were examined. This test was made in a greenhouse over the entire period.

Experiment [16] concerns common ragweed (Ambrosia artemisiifolia). Description: Test Example 5: foliar treatment on upland fields. Particulars: 63 g/ha active ingredient; foliar spray; 18 days after application.
Source text: as §1, §6

Experiment [17] concerns common lambsquarters (Chenopodium album). The experiment in a line: Test Example 5: foliar treatment on upland fields. Particulars: 63 g/ha active ingredient; foliar spray; 18 days after application.
Source text: as §1, §6

The subject of experiment [18] is entireleaf morningglory (Ipomoea hederacea var. integriuscula). The experiment in a line: Test Example 5: foliar treatment on upland fields. Particulars: 63 g/ha active ingredient; foliar spray; 18 days after application.
Source text: as §1, §6

Turning to `CCOC(=O)c1cc(-n2ncc(C(F)(F)F)c(C)c2=O)c(F)cc1Cl` [Compound 1-642, Ethyl 2-chloro-4-fluoro-5-(4-methyl-5-trifluoromethyl-3-pyridazinon-2-yl)benzoate], the “Herbicidal activity Barnyardgrass” value in experiment [1] and in experiment [3] was 5 each time. Besides, the “Herbicidal activity Velvetleaf” value in [2], in experiment [8] and in experiment [10] was 5 each time. In addition, the “Herbicidal activity Entireleaf morningglory” value in experiment [4], in [9] and in experiment [11] was 5 throughout. Besides, the “Herbicidal activity and phytotoxicity Slender amaranth” value in experiment [5] was 5. Also, the “Herbicidal activity and phytotoxicity Pale smartweed” value in [6] is given as 5. In experiment [7], the “Herbicidal activity and phytotoxicity Common lambsquarters” value came out at 5.

As to `C#CCOc1cc(-n2ncc(C(F)(F)F)c(C)c2=O)c(F)cc1Cl` [Compound 1-486, 2-(4-Chloro-2-fluoro-5-propargyloxyphenyl)-4-methyl-5-trifluoromethylpyridazin-3-one], the “Herbicidal activity and phytotoxicity Catchweed bedstraw” value in experiment [12] turned out to be 5. Besides, the “Herbicidal activity and phytotoxicity Common chickweed” value in experiment [13] was 5. For the same compound, the “Herbicidal activity and phytotoxicity Pale smartweed” value in experiment [14] is 5. Moreover, the “Herbicidal activity Barnyardgrass” value in [1] was 5; in experiment [3], 4. Further, the “Herbicidal activity Velvetleaf” value in [2], in experiment [8] and in experiment [10] was 5 in each case. Also, the “Herbicidal activity Entireleaf morningglory” value in [4], in [9] and in [11] was 5 each time.

Consider `C#CCN1C(=O)COc2cc(F)c(-n3ncc(C(F)(F)F)cc3=O)cc21` [Compound 2-631, 7-Fluoro-6-(5-trifluoromethyl-3-pyridazinon-2-yl)-4-propargyl-2H-1,4-benzoxazin-3-one], for which the “Herbicidal activity Barnyardgrass” value in experiment [1] and in [3] was 5 in each case. The “Herbicidal activity Velvetleaf” value in experiment [2], in [8] and in experiment [10] was 5 throughout. Also, the “Herbicidal activity Entireleaf morningglory” value in [4], in experiment [9] and in experiment [11] was 5 in each case. The “Herbicidal activity and phytotoxicity Slender amaranth” value in experiment [5] is 5. Moreover, in [6], the “Herbicidal activity and phytotoxicity Pale smartweed” value is recorded as 5. Further, the “Herbicidal activity and phytotoxicity Common lambsquarters” value in experiment [7] was 5.

`CCOC(=O)COc1cc(-n2ncc(C(F)(F)F)c(C)c2=O)c(F)cc1Cl` [Compound 1-496, Ethyl 2-chloro-4-fluoro-5-(4-methyl-5-trifluoromethyl-3-pyridazinon-2-yl)phenoxyacetate]: the “Herbicidal activity and phytotoxicity Catchweed bedstraw” value in experiment [12] came out at 5. Further, in [13], the “Herbicidal activity and phytotoxicity Common chickweed” value came out at 4. For the same compound, the “Herbicidal activity and phytotoxicity Pale smartweed” value in [14] is recorded as 4. Moreover, the “Herbicidal activity Barnyardgrass” value in [1] and in experiment [3] was 5 in each case. The “Herbicidal activity Velvetleaf” value in experiment [2], in [8] and in [10] was 5 in each case. Moreover, the “Herbicidal activity Entireleaf morningglory” value in experiment [4], in experiment [9] and in experiment [11] was 5 throughout. Further, the “Herbicidal activity and phytotoxicity Common cocklebur” value in experiment [15] was 5. In experiment [16], the “Herbicidal activity and phytotoxicity Common ragweed” value is given as 5. Moreover, the “Herbicidal activity and phytotoxicity Common lambsquarters” value in experiment [17] is listed as 5. Moreover, the “Herbicidal activity and phytotoxicity Entireleaf morningglory” value in [18] worked out at 5.

Consider `C#CCN1C(=O)COc2ccc(-n3ncc(C(F)(F)F)c(C)c3=O)cc21` [Compound 2-203, 6-(4-Methyl-5-trifluoromethyl-3-pyridazinon-2-yl)-4-propargyl-2H-1,4-benzoxazin-3-one], for which the “Herbicidal activity Barnyardgrass” value in experiment [1] amounted to 5; in experiment [3], 4. Moreover, the “Herbicidal activity Velvetleaf” value in experiment [2], in experiment [8] and in experiment [10] was 5 in each case. In addition, the “Herbicidal activity Entireleaf morningglory” value in experiment [4], in [9] and in experiment [11] was 5 each time. The “Herbicidal activity and phytotoxicity Slender amaranth” value in [5] worked out at 5. Also, the “Herbicidal activity and phytotoxicity Pale smartweed” value in experiment [6] came to 5. For the same compound, in [7], the “Herbicidal activity and phytotoxicity Common lambsquarters” value is 5.

For `Cc1c(C(F)(F)F)cnn(-c2cc(OC(C)C)c(Br)cc2F)c1=O` [Compound 1-1783, 2-(4-bromo-2-fluoro-5-isopropyloxyphenyl)-4-methyl-5-trifluoromethylpyridazin-3-one], the “Herbicidal activity Barnyardgrass” value in experiment [1] and in experiment [3] was 5 throughout. Besides, the “Herbicidal activity Velvetleaf” value in [2], in experiment [8] and in [10] was 5 throughout. Also, the “Herbicidal activity Entireleaf morningglory” value in experiment [4], in [9] and in [11] was 5 each time.
